Consider 18 compounds from US20150152088A1, “ALKYNYL HETEROAROMATIC COMPOUND AND USE THEREOF” (Nanjing Sanhome Pharmaceutical Co., Ltd., priority 2012, published 2015).

Assay [1] has as its system K562 chronic myelogenous leukemia cells. Description: MTT assay, in vitro inhibitory activity on cells. The class given is cell-based. From the text:
(§1) In this example, MTT assay was used to detect in vitro inhibitory activity of the compounds prepared according to the above examples on the cells. […] AP24534 was purchased from Shanghai Xinkuo Chemical Technology Co., Ltd., China.
(§2) Dimethyl sulfoxide (DMSO) is capable of dissolving formazan in cells, and absorbance value can be measured at a wavelength of 490 nm by an enzyme-linked immunometric meter, which reflects the number of living cells. Within a certain range of the number of cells, the amount of MTT crystals formed is proportional to the number of living cells.
(§3) 1. […] 2. Culturing in a 37° C., 5% CO2 incubator and keeping the cells adhering to the wall of the well. 3. […] 4. Carefully removing the supernatant, gently washing with PBS and discarding the supernatant again. 5. […] 6. Terminating culturing and carefully discarding the medium in each well. 7. Adding 150 μl dimethyl sulfoxide into each well, shaking for 10 minutes at low speed in a shaker, to make crystals fully dissolved. 8. Measuring the absorbance of each well at 490 nm by an enzyme-linked immunometric meter. 9. Calculating IC50 values.
For orientation: Tetrazolium dyes change colour on reduction, which living cells bring about.

The target of another assay is T1, Human ABL1 (T315I) (Homo sapiens, UniProt P00519, T315I).
T1 construct: purchased Millipore Corporation, USA #14-522
Nature of the assay: ABL1 (T315I) kinase activity, [γ-33P] ATP / Abltide radiometric assay. The class given is biochemical. Conditions: ATP 1.0 μM, 120 minutes, room temperature. On the procedure: Kinase activity was determined according to the manufacturer's instructions. Peptide substrate is Abltide ([…]), purchased from Millipore Corporation, USA. Ion exchange chromatography paper P81 was purchased from Whatman Company, UK. [γ-33P] ATP was purchased from Perkin Elmer Company.
[γ-33P] ATP was added at room temperature, with final concentration of 1.0 μM, and the reaction was performed for 120 minutes. 20 μl aliquots were transferred onto the ion exchange chromatography paper P81. The paper was thoroughly washed with a 0.75% phosphoric acid solution three times, and then washed with acetone once. Finally, γ-33P radioactivity was measured.

Assay [2] relates to MDA-MB-231 human breast cancer cells. Nature of the assay: MTT assay, in vitro inhibitory activity on cells. The class given is cell-based. Conditions: typically 48 hours.
Source text: as §1, §2, §3

The test system of assay [3] is Ovcar-3 human ovarian cancer cells. Description: MTT assay, in vitro inhibitory activity on cells. The class given is cell-based. Conditions: typically 48 hours.
Source text: as §1, §2, §3

Assay [4] relates to Saos-2 human osteosarcoma cells. Nature of the assay: MTT assay, in vitro inhibitory activity on cells. The class given is cell-based. The following applies: typically 48 hours.
Source text: as §1, §2, §3

The test system of assay [5] is MEG-01 human megakaryocyte leukemia cells. Description: CellTiter-Glo cell viability assay on Bcr-Abl-positive cells. Conditions: 72 hours. The class given is cell-based. On the procedure: Each compound was dissolved in DMSO to 10 mM, diluted to 50 μM with complete medium, and then diluted to 10 μM with 0.1% DMSO in complete medium. The resulting solution was 10-fold serially diluted and formulated into 10 concentrations.
MEG-01 human megakaryocyte leukemia cells and KU812 human peripheral blood basophilic leukocytes, purchased from ATCC Company, USA.
6) Calculating cell viability (Cell Viability)=(RLUsample/RLUnegative)×100%, wherein RLUsample was RLU (Relative Light Units) value of the well added with the compound and RLUnegative was RLU value of the well without the compound (that is, cell control, which was treated with the same concentration of DMSO). Data were processed by using a four-parameter logistic fitting module in Graphpad Prism 4.0 software to calculate IC50.

For assay [6], the system named is KU812 human peripheral blood basophilic leukocytes. The description is as above. The following applies: KU812, 72 h, read-out: IC50 KU812.
[7] abbreviates: Homo sapiens, K562, 48 h, typically 48 hours.

The structures appear in SMILES notation.

With `Cc1ccc(C(=O)Nc2ccc(CN3CCN(C)CC3)c(C(F)(F)F)c2)cc1C#Cc1cccc2[nH]nc(N)c12` [Example 1, 3-(3-amino-1H-indazol-4-yl)ethynyl-4-methyl-N-[4-(4-methylpiperazin-1-yl)methyl-3-trifluoromethylphenyl]benzamide], the IC50 in assay [1] (setting [7]) came out at 1870 nM; against Human ABL1 (T315I) it was 6.48 nM.
In the case of `Cc1cn(-c2cc(NC(=O)c3ccc(C)c(C#Cc4cccc5ncncc45)c3)cc(C(F)(F)F)c2)cn1` [Example 20, 3-((quinazolin-5-yl)ethynyl)-4-methyl-N-[3-(4-methyl-1H-imidazol-1-yl)-5-trifluoromethylphenyl]benzamide], the half-inhibitory concentration (IC50) is 1140 nM in assay [1] (setting [7]) and 43.5 nM at Human ABL1 (T315I).
In the case of `CNc1ncc2ccc(C#Cc3cc(C(=O)Nc4ccc(CN5CCN(C)CC5)c(C(F)(F)F)c4)ccc3C)cc2n1` [Example 6, 3-((2-methylaminoquinazolin-7-yl)ethynyl)-4-methyl-N-[4-((4-methylpiperazin-1-yl)methyl)-3-trifluoromethylphenyl]benzamide], the IC50 in assay [1] (setting [7]) worked out at 730 nM; in assay [2], 7890 nM; in assay [3], 8260 nM; in assay [4], 2100 nM.
Consider `Cc1ccc(C(=O)Nc2ccc(CN3CCN(C)CC3)c(C(F)(F)F)c2)cc1C#Cc1ccc2cnc(N)nc2c1` [Example 11, 3-((2-aminoquinazolin-7-yl)ethynyl)-4-methyl-N-[4-((4-methylpiperazin-1-yl)methyl)-3-trifluoromethylphenyl]benzamide], for which the IC50 in assay [1] (setting [7]) came out at 900 nM; in assay [2] it was 2790 nM; in assay [3] it was 4720 nM; in assay [4] it was 1790 nM.
As to `Cc1ccc(C(=O)Nc2ccc(CN3CCN(C)CC3)c(C(F)(F)F)c2)cc1C#Cc1ccc2c(N)ncnc2c1` [Example 13, 3-((4-aminoquinazolin-7-yl)ethynyl)-4-methyl-N-[4-((4-methylpiperazin-1-yl)methyl)-3-trifluoromethylphenyl]benzamide], the half-inhibitory concentration (IC50) in assay [1] (setting [7]) was 4120 nM; against Human ABL1 (T315I), 9.5 nM; in assay [5] it was 3.56 nM; in assay [6] it was 1.17 nM.
On to `Cc1ccc(C(=O)Nc2ccc(CN3CCN(C)CC3)c(C(F)(F)F)c2)cc1C#Cc1cc(F)c2cnc(N)nc2c1` [Example 5, 3-((5-fluoro-2-aminoquinazolin-7-yl)ethynyl)-4-methyl-N-[4-((4-methylpiperazin-1-yl)methyl)-3-trifluoromethylphenyl]benzamide], for which the IC50 in assay [1] (setting [7]) is 2120 nM; in assay [2] it was 6710 nM; in assay [3], 6520 nM; in assay [4], 310 nM.
`Cc1ccc(C(=O)Nc2ccc(CN3CCN(C)CC3)c(C(F)(F)F)c2)cc1C#Cc1ccc2nccnc2c1` [Example 23]: the IC50 in assay [1] (setting [7]) was found to be 2840 nM; against Human ABL1 (T315I), 6 nM.
Regarding `Cc1ccc(C(=O)Nc2ccc(CN3CCN(C)CC3)c(C(F)(F)F)c2)cc1C#Cc1ccc2cncnc2c1` [Example 3, 3-((quinazolin-7-yl)ethynyl)4-methyl-N-[4-((4-methylpiperazin-1-yl)methyl)-3-trifluoromethylphenyl]benzamide], the half-maximal inhibitory concentration (IC50) in assay [1] (setting [7]) amounted to 1340 nM; in assay [2], 2450 nM; in assay [3] it was 4470 nM; in assay [4] it was 1070 nM; against Human ABL1 (T315I) it was 4.51 nM.
For `Cc1ccc(C(=O)Nc2ccc(CN3CCN(C)CC3)c(C(F)(F)F)c2)cc1C#Cc1cccc2ncncc12` [Example 4, 3-((quinazolin-5-yl)ethynyl)-4-methyl-N-[4-((4-methylpiperazin-1-yl)methyl)-3-trifluoromethylphenyl]benzamide], the concentration for half-maximal inhibition (IC50) in assay [1] (setting [7]) was determined as 2440 nM; in assay [2], 1300 nM; in assay [3], 6230 nM; in assay [4] it was 1590 nM; at Human ABL1 (T315I), 2.3 nM.
With `CNc1ncnc2cc(C#Cc3cc(C(=O)Nc4ccc(CN5CCN(C)CC5)c(C(F)(F)F)c4)ccc3C)ccc12` [Example 12, 3-((4-methylaminoquinazolin-7-yl)ethynyl)-4-methyl-N-[4-((4-methylpiperazin-1-yl)methyl)-3-trifluoromethylphenyl]benzamide], the IC50 in assay [1] (setting [7]) was determined as 280 nM; against Human ABL1 (T315I) it was 31.7 nM.
For the compound `Cc1ccc(NC(=O)Nc2ccc(CN3CCN(C)CC3)c(C(F)(F)F)c2)cc1C#Cc1cccc2[nH]nc(N)c12` [Example 32, N-[3-((3-amino-1H-indazol-4-yl)ethynyl)-4-methyl]phenyl-N′-[4-((4-methylpiperazin-1-yl)methyl)-3-trifluoromethylphenyl]urea], the IC50 was 660 nM in assay [1] (setting [7]), 2110 nM in assay [2], 6970 nM in assay [3] and 2130 nM in assay [4].
On to `Cc1ccc(C(=O)Nc2ccc(CN3CC[C@@H](N(C)C)C3)c(C(F)(F)F)c2)cc1C#Cc1cccc2ncncc12` [Example 18, 3-((quinazolin-5-yl)ethynyl)-4-methyl-(R)—N-[4-((3-(dimethylamino)pyrrolidin-1-yl)methyl)-3-trifluoromethylphenyl]benzamide], for which the half-inhibitory concentration (IC50) in assay [1] (typically 48 hours) amounted to 470 nM; at Human ABL1 (T315I), 21.7 nM.
With `CNc1ncc2c(F)cc(C#Cc3cc(C(=O)Nc4ccc(CN5CCN(C)CC5)c(C(F)(F)F)c4)ccc3C)cc2n1` [Example 7, 3-((5-fluoro-2-methylaminoquinazolin-7-yl)ethynyl)-4-methyl-N-[4-((4-methylpiperazin-1-yl)methyl)-3-trifluoromethylphenyl]benzamide], the 50% inhibitory concentration (IC50) was 670 nM in assay [1] (setting [7]), 4140 nM in assay [2], 2350 nM in assay [3] and 4700 nM in assay [4].
With `Cc1ccc(C(=O)Nc2ccc(CN3CCC(N(C)C)CC3)c(C(F)(F)F)c2)cc1C#Cc1ccc2nccnc2c1` [Example 21], the IC50 in assay [1] (setting [7]) amounted to 3310 nM; on Human ABL1 (T315I) it was 24.3 nM.
In the case of `Cc1ccc(C(=O)Nc2ccc(CN3CCN(CCO)CC3)c(C(F)(F)F)c2)cc1C#Cc1cccc2ncncc12` [Example 16, 3-((quinazolin-5-yl)ethynyl)-4-methyl-N-[4-((4-(2-hydroxyethyl)piperazin-1-yl)methyl)-3-trifluoromethylphenyl]benzamide], the IC50 in assay [1] (setting [7]) stood at 7030 nM; on Human ABL1 (T315I), 12.4 nM.
For `Cc1ccc(C(=O)Nc2ccc(CN3CCN(C)CC3)c(C(F)(F)F)c2)cc1C#Cc1cnc2cccnn12` [AP24534, reference compound], the IC50 in assay [1] (Homo sapiens, K562, typically 48 hours) was 4800 nM; in assay [2], 420 nM; in assay [3] it was 1210 nM; in assay [4], 380 nM.
On to `Cc1ccc(C(=O)Nc2ccc(CN3CCN(C)CC3)c(C(F)(F)F)c2)cc1C#Cc1ccc2c(=O)[nH]cnc2c1` [Example 9, 3-((4-oxo-3,4-dihydroquinazolin-7-yl)ethynyl)-4-methyl-N-[4-((4-methylpiperazin-1-yl)methyl)-3-trifluoromethylphenyl]benzamide], for which the IC50 worked out at 5340 nM in assay [1] (setting [7]), 5.8 nM against Human ABL1 (T315I), 1.49 nM in assay [5] and 0.518 nM in assay [6].
For `Cc1cn(-c2cc(NC(=O)c3ccc(F)c(C#Cc4cccc5ncncc45)c3)cc(C(F)(F)F)c2)cn1` [Example 24, 3-((quinazolin-5-yl)ethynyl)-4-fluoro-N-[3-(4-methyl-1H-imidazol-1-yl)-5-trifluoromethylphenyl]benzamide], the half-inhibitory concentration (IC50) in assay [1] (setting [7]) was found to be 11400 nM.

In general, IC50 refers to the concentration at which inhibition is half-maximal.
